Laboratory results reported in ChEMBL document CHEMBL4020763, “N-(1H-Pyrazol-3-yl)quinazolin-4-amines as a novel class of casein kinase 1δ/ε inhibitors: Synthesis, biological evaluation and molecular modeling studies” (Bioorg Med Chem Lett, 2017).

Tests used:
[1] = tested on: A549; assay: Growth inhibition of human A549 cells at 100 uM by MTT assay relative to control; type: functional; details: read-out: GI
[2] = tested on: HCT-15; assay: Cytotoxicity against human HCT15 cells by MTT assay; type: functional, cell-based
[3] = target: Dual specificity protein kinase CLK1 (Mus musculus) (UniProt P22518); assay: Inhibition of recombinant mouse GST-fused CLK1 expressed in Escherichia coli at 10 uM using RS peptide as substrate after 30 mins in presence of ATP by scintillation counting method relative to control
Chain of Dual specificity protein kinase CLK1 (Mus musculus) (P22518 whole entry, looked up, the tested form may be a part): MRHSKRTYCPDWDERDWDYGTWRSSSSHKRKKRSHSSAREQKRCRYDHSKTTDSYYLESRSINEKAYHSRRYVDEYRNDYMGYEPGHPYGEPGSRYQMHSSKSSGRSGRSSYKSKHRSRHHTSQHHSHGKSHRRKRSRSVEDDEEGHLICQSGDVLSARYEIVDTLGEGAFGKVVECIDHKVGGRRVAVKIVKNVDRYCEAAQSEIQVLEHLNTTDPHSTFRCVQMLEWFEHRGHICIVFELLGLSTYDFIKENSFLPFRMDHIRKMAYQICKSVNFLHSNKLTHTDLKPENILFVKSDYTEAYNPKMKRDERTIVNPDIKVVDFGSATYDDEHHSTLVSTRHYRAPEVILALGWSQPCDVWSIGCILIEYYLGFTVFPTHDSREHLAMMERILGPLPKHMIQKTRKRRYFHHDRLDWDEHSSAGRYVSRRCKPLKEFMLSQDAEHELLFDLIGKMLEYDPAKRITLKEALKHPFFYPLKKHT

[4] = Growth inhibition of HEK293 cells at 100 uM by MTT assay relative to control; type: cell-based; details: human, read-out: GI
[5] = target: Glycogen synthase kinase-3 (Sus scrofa, UniProt B2LUN4+I6LNT8); assay: Inhibition of porcine brain GSK-3 alpha/beta using YRRAAVPPSPSLSRHSSPHQpSEDEEE as substrate after 30 mins in presence of ATP by scintillation counting method
[6] = tested on: HCT-15; assay: Growth inhibition of human HCT15 cells at 100 uM by MTT assay relative to control; type: functional; details: read-out: GI
[7] = tested on: PANC-1; assay: Growth inhibition of human PANC1 cells at 100 uM by MTT assay relative to control; type: functional; details: read-out: GI
[8] = tested on: MCF7; assay: Growth inhibition of human MCF7 cells at 100 uM by MTT assay relative to control; type: functional; details: read-out: GI
[9] = tested on: MCF7; assay: Cytotoxicity against human MCF7 cells by MTT assay; type: functional, cell-based
[10] = tested on: ZR-75-30; assay: Growth inhibition of human ZR-7530 cells at 100 uM by MTT assay relative to control; type: functional; details: read-out: GI
[11] = target: Dual specificity protein kinase CLK1 (Mus musculus, UniProt P22518); assay: Inhibition of recombinant mouse GST-fused CLK1 expressed in Escherichia coli using RS peptide as substrate after 30 mins in presence of ATP by scintillation counting method
Chain of Dual specificity protein kinase CLK1 (P22518 whole entry, the tested form may be a part): as the sequence (P22518 whole entry, looked up, the tested form may be a part) above

[12] = Inhibition of porcine brain CK1-delta/epsilon using CSK peptide as substrate after 30 mins in presence of ATP by scintillation counting method; set-up: species or system Sus scrofa
[13] = tested on: MDA-MB-231; assay: Cytotoxicity against human MDA-MB-231 cells by MTT assay; type: functional, cell-based
[14] = tested on: DU-145; assay: Growth inhibition of human DU145 cells at 100 uM by MTT assay relative to control; type: functional; details: read-out: GI
[15] = tested on: MDA-MB-231; assay: Growth inhibition of human MDA-MB-231 cells at 100 uM by MTT assay relative to control; type: functional; details: read-out: GI
[16] = target: Dual specificity tyrosine-phosphorylation-regulated kinase 1A (Homo sapiens) (UniProt Q13627); assay: Inhibition of recombinant full length human GST-fused DYRK1A expressed in Escherichia coli at 10 uM using RS peptide as substrate after 30 mins in presence of ATP by scintillation counting method relative to control
[17] = tested on: MIA PaCa-2; assay: Cytotoxicity against human MIAPaCa2 cells by MTT assay; type: functional, cell-based
[18] = tested on: MIA PaCa-2; assay: Growth inhibition of human MIAPaCa2 cells at 100 uM by MTT assay relative to control; type: functional; details: read-out: GI
[19] = tested on: MDA-MB-468; assay: Growth inhibition of human MDA-MB-468 cells at 100 uM by MTT assay relative to control; type: functional; details: read-out: GI
[20] = tested on: BT-20; assay: Growth inhibition of human BT20 cells at 100 uM by MTT assay relative to control; type: functional; details: read-out: GI
[21] = target: CDK2/Cyclin A2 (Homo sapiens) (UniProt P24941+P20248); assay: Inhibition of recombinant human CDK2/cyclin A at 10 uM using histone H1 as substrate after 30 mins in presence of ATP by scintillation counting method relative to control; type: protein-complex assay
[22] = target: Cyclin-dependent kinase 5/CDK5 activator 1 (Homo sapiens) (UniProt Q00535+Q15078); assay: Inhibition of recombinant human CDK5/p25 expressed in Escherichia coli at 10 uM using histone H1 as substrate after 30 mins in presence of ATP by scintillation counting method relative to control
Chain of Cyclin-dependent kinase 5/CDK5 activator 1 (Homo sapiens) (Q00535 whole entry): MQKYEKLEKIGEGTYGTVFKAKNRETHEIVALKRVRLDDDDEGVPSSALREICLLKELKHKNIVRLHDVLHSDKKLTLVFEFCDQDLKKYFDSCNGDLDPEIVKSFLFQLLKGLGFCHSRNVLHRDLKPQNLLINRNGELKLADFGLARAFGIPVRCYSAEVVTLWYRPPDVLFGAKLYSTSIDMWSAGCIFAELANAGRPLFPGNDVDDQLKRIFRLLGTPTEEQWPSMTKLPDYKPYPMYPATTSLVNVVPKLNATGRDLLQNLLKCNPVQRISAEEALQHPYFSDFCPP
Chain of Cyclin-dependent kinase 5/CDK5 activator 1 (Homo sapiens) (Q15078 99-307 partner limits assumed): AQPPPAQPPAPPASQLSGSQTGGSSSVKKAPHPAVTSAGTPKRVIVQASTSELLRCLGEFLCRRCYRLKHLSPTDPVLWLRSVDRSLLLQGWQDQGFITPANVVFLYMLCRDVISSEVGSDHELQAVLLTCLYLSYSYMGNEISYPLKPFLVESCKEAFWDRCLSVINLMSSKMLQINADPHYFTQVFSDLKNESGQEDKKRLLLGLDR

[23] = target: Glycogen synthase kinase-3 (Sus scrofa) (UniProt B2LUN4+I6LNT8); assay: Inhibition of porcine brain GSK-3 alpha/beta at 10 uM using YRRAAVPPSPSLSRHSSPHQpSEDEEE as substrate after 30 mins in presence of ATP by scintillation counting method relative to control
[24] = tested on: BT-20; assay: Cytotoxicity against human BT20 cells by MTT assay; type: functional, cell-based
[25] = tested on: ZR-75-1; assay: Growth inhibition of human ZR-75-1 cells at 100 uM by MTT assay relative to control; type: functional; details: read-out: GI
[26] = tested on: PANC-1; assay: Cytotoxicity against human PANC1 cells by MTT assay; type: functional, cell-based
[27] = tested on: ZR-75-30; assay: Cytotoxicity against human ZR-7530 cells by MTT assay; type: functional, cell-based
[28] = tested on: MDA-MB-468; assay: Cytotoxicity against human MDA-MB-468 cells by MTT assay; type: functional, cell-based
[29] = tested on: HEK293; assay: Cytotoxicity against HEK293 cells by MTT assay; type: cell-based; details: Homo sapiens
[30] = tested on: A549; assay: Cytotoxicity against human A549 cells by MTT assay; type: functional, cell-based
[31] = target: CDK2/Cyclin A2 (Homo sapiens, UniProt P24941); assay: Inhibition of recombinant human CDK2/cyclin A using histone H1 as substrate after 30 mins in presence of ATP by scintillation counting method; type: protein-complex assay
[32] = Inhibition of M-phase starfish oocytes CDK1/cyclin B using histone H1 as substrate after 30 mins in presence of ATP by scintillation counting method; set-up: species or system Asteroidea
[33] = target: CDK9/cyclin T1 (Homo sapiens) (UniProt O60563+P50750); assay: Inhibition of recombinant human CDK9/cyclin T expressed in insect cells at 10 uM using YSPTSPSYSPTSPSYSPTSPSKKKK as substrate after 30 mins in presence of ATP by scintillation counting method relative to control
[34] = organism: Sus scrofa; assay: Inhibition of porcine brain CK1-delta/epsilon at 10 uM using CSK peptide as substrate after 30 mins in presence of ATP by scintillation counting method relative to control
[35] = tested on: Asteroidea; assay: Inhibition of M-phase starfish oocytes CDK1/cyclin B at 10 uM using histone H1 as substrate after 30 mins in presence of ATP by scintillation counting method relative to control
[36] = tested on: ZR-75-1; assay: Cytotoxicity against human ZR-75-1 cells by MTT assay; type: functional, cell-based

Structure (SMILES) | inhibition of growth at 100 µM [1] [%] | IC50 [2] [µM] | inhibition [3] [%] | inhibition at 100 µM [4] [%] | IC50 [5] [µM] | inhibition of growth at 100 µM [6] [%] | inhibition of growth at 100 µM [7] [%] | inhibition of growth at 100 µM [8] [%] | IC50 [9] [µM] | inhibition of growth at 100 µM [10] [%] | IC50 [11] [µM] | IC50 [12] [µM] | IC50 [13] [µM] | inhibition of growth at 100 µM [14] [%] | inhibition of growth at 100 µM [15] [%] | inhibition [16] [%] | IC50 [17] [µM] | inhibition of growth at 100 µM [18] [%] | IC50 [31] [µM] | IC50 [32] [µM] | also measured
COc1cc2ncnc(Nc3cc(-c4ccc(F)cc4)[nH]n3)c2cc1OC | > 50 | > 100 | > 50 | > 50 | > 10 | > 50 | > 50 | > 50 | > 100 | > 50 | > 10 | 1.4 | > 100 | > 50 | > 50 | > 50 | > 100 | > 50 | > 10 | > 10 | inhibition of growth at 100 µM [19]: > 50%; inhibition of growth at 100 µM [20]: > 50%; inhibition [21]: > 50%; inhibition [22]: > 50%; inhibition [23]: > 50%; IC50 [24]: > 100 µM; inhibition of growth at 100 µM [25]: > 50%; IC50 [26]: 69.4 µM; IC50 [27]: > 100 µM; IC50 [28]: > 100 µM; IC50 [29]: > 100 µM; IC50 [30]: > 100 µM; inhibition [33]: > 50%; inhibition [34]: > 50%; inhibition [35]: > 50%; IC50 [36]: > 100 µM
COc1cc2ncnc(Nc3n[nH]cc3C#N)c2cc1OC | > 50 | > 100 | > 50 | > 50 | > 10 | > 50 | > 50 | > 50 | > 100 | > 50 | > 10 | < 10 | > 100 | > 50 | > 50 | > 50 | > 100 | > 50 | > 10 | > 10 | inhibition of growth at 100 µM [19]: > 50%; inhibition of growth at 100 µM [20]: > 50%; inhibition [21]: > 50%; inhibition [22]: > 50%; inhibition [23]: > 50%; IC50 [24]: > 100 µM; inhibition of growth at 100 µM [25]: > 50%; IC50 [26]: > 100 µM; IC50 [27]: > 100 µM; IC50 [28]: > 100 µM; IC50 [29]: > 100 µM; IC50 [30]: > 100 µM; inhibition [33]: > 50%; inhibition [34]: > 50%; inhibition [35]: > 50%; IC50 [36]: > 100 µM
COc1cc2ncnc(Nc3cc(-c4ccccc4)n(-c4ccccc4)n3)c2cc1OC | > 50 | < 100 | > 50 | > 50 | > 10 | > 50 | > 50 | > 50 | > 100 | > 50 | > 10 | < 10 | 72.9 | > 50 | > 50 | > 50 | 72.9 | > 50 | > 10 | > 10 | inhibition of growth at 100 µM [19]: > 50%; inhibition of growth at 100 µM [20]: > 50%; inhibition [21]: > 50%; inhibition [22]: > 50%; inhibition [23]: > 50%; IC50 [24]: > 100 µM; inhibition of growth at 100 µM [25]: > 50%; IC50 [26]: 70.7 µM; IC50 [27]: 58.8 µM; IC50 [28]: > 100 µM; IC50 [29]: > 100 µM; IC50 [30]: < 100 µM; inhibition [33]: > 50%; inhibition [34]: > 50%; inhibition [35]: > 50%; IC50 [36]: > 100 µM
COc1cc2ncnc(Nc3cc(-c4ccccc4)[nH]n3)c2cc1OC | > 50 | > 100 | > 50 | > 50 | > 10 | > 50 | > 50 | > 50 | > 100 | > 50 | > 10 | 1.6 | > 100 | > 50 | > 50 | > 50 | > 100 | > 50 | > 10 | > 10 | inhibition of growth at 100 µM [19]: > 50%; inhibition of growth at 100 µM [20]: > 50%; inhibition [21]: > 50%; inhibition [22]: > 50%; inhibition [23]: > 50%; IC50 [24]: > 100 µM; inhibition of growth at 100 µM [25]: > 50%; IC50 [26]: 9.3 µM; IC50 [27]: > 100 µM; IC50 [28]: > 100 µM; IC50 [29]: 71.1 µM; IC50 [30]: 29.7 µM; inhibition [33]: > 50%; inhibition [34]: > 50%; inhibition [35]: > 50%; IC50 [36]: > 100 µM
COc1ccc2c(c1)[nH]c1c(C)nccc12 [HARMINE] |  |  |  |  | > 10 |  |  |  |  |  |  |  |  |  |  |  |  |  | > 10 | > 10 | 
